Consider 9 compounds from PubChem BioAssay (NCI).

Each structure is given as a SMILES string. Where “and” joins values, the source holds several entries; their conditions need not be identical. Equal entries are not always repeated.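 Method: 48-hour compound exposure of cells in 96-well plates, five concentrations, linear interpolation of endpoints. GI50 marks 50% less growth. TGI: total growth inhibition.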 A value given as a limit tells only on which side of the number the result lay.

Some test systems named below: NCI-H522 lung; A498 renal; ACHN renal; OVCAR-3 ovarian; SK-MEL-28 melanoma; HOP-92 NSCLC; OVCAR-5 ovarian; NCI/ADR-RES ovarian; MOLT-4 leukemia; IGROV1 ovarian.
Assay in all cases: growth of human tumour cells (NCI), 48 h

As to `COc1ccc2[nH]c3c4[nH]c5ccc(OC)cc5c4c4c(c3c2c1)C(=O)NC4=O`, the GI50 was 2.32 µM with NCI-H522 lung; 7.36 µM in the experiment on A498 renal; over 6.71 µM in the experiment with ACHN renal; over 11.2 µM in the experiment with OVCAR-3 ovarian; over 25 µM in the experiment on SK-MEL-28 melanoma; over 25 µM with HOP-92 NSCLC. Besides, the GI50 in the experiment on OVCAR-5 ovarian is over 25 µM; with NCI/ADR-RES ovarian, over 25 µM; in the experiment on MOLT-4 leukemia, over 10.3 µM; with IGROV1 ovarian, over 25 µM. In addition, the TGI in the experiment with NCI-H522 lung, in the experiment on A498 renal, in the experiment with ACHN renal, in the experiment with OVCAR-3 ovarian, with SK-MEL-28 melanoma and in the experiment with HOP-92 NSCLC was over 25 µM each time. The TGI in the experiment on OVCAR-5 ovarian, in the experiment with NCI/ADR-RES ovarian, in the experiment on MOLT-4 leukemia and in the experiment with IGROV1 ovarian was over 25 µM throughout.

`CN1CCc2nc(N)nc(-c3nc(N)nc4c3CN(C)CC4)c2C1`: the TGI in the experiment with NCI-H522 lung, with A498 renal, with ACHN renal, with OVCAR-3 ovarian, with SK-MEL-28 melanoma and in the experiment with HOP-92 NSCLC was over 100 µM in each case. Further, the TGI in the experiment with OVCAR-5 ovarian, in the experiment with NCI/ADR-RES ovarian, with MOLT-4 leukemia and in the experiment on IGROV1 ovarian was over 100 µM each time.

`Nc1nc(Nc2cccnc2)sc1C(=O)c1ccccc1F`: the GI50 in the experiment on NCI-H522 lung was 8.26 µM; with A498 renal, 2.59 µM; in the experiment with ACHN renal, 2.53 µM; in the experiment on OVCAR-3 ovarian, 2.82 µM; in the experiment with SK-MEL-28 melanoma, 4.13 µM; with HOP-92 NSCLC it was 4.16 µM. Moreover, the GI50 is 2.17 µM in the experiment with OVCAR-5 ovarian, 0.844 µM in the experiment with NCI/ADR-RES ovarian, 2.52 µM in the experiment on MOLT-4 leukemia and 2.17 µM in the experiment with IGROV1 ovarian. The TGI in the experiment on NCI-H522 lung is over 64.1 µM; in the experiment on A498 renal it was 7.02 µM; in the experiment with ACHN renal, over 100 µM; in the experiment with OVCAR-3 ovarian it was over 28.1 µM; with SK-MEL-28 melanoma it was 22.3 µM; in the experiment on HOP-92 NSCLC, over 100 µM. The TGI in the experiment with OVCAR-5 ovarian was 7.61 µM; in the experiment with NCI/ADR-RES ovarian, 12.2 µM; with MOLT-4 leukemia, over 26.6 µM; in the experiment with IGROV1 ovarian it was over 29.1 µM.

With `CCc1nc(N)nc(N)c1-c1ccc(NC)c([N+](=O)[O-])c1`, the TGI was over 57.2 µM in the experiment with NCI-H522 lung; over 87 µM with A498 renal; over 100 µM in the experiment with ACHN renal; over 100 µM in the experiment with OVCAR-3 ovarian; over 100 µM in the experiment with SK-MEL-28 melanoma; over 86.8 µM with HOP-92 NSCLC. The TGI was over 100 µM in the experiment with OVCAR-5 ovarian, over 100 µM in the experiment on NCI/ADR-RES ovarian, over 68.2 µM with MOLT-4 leukemia and over 100 µM in the experiment on IGROV1 ovarian.

With `COc1ccc(/C=C/c2c(C(=O)/C=C/c3ccccc3)c(C)nc3ccccc23)cc1`, the GI50 with NCI-H522 lung is 1.72 µM; in the experiment on A498 renal it was 1.7 µM; in the experiment on ACHN renal it was 1.68 µM; in the experiment on OVCAR-3 ovarian it was 1.65 µM; in the experiment with SK-MEL-28 melanoma, 1.88 µM; in the experiment with HOP-92 NSCLC, 1.4 µM. For the same compound, the GI50 in the experiment on OVCAR-5 ovarian is 1.91 µM; in the experiment on NCI/ADR-RES ovarian, 2.51 µM; in the experiment with MOLT-4 leukemia, 1.33 µM; in the experiment with IGROV1 ovarian, 1.57 µM. The TGI in the experiment on NCI-H522 lung worked out at 4.83 µM; with A498 renal it was 3.15 µM; in the experiment on ACHN renal, 3.1 µM; in the experiment with OVCAR-3 ovarian, 3.12 µM; in the experiment with SK-MEL-28 melanoma it was 3.47 µM; in the experiment with HOP-92 NSCLC it was 3.84 µM. The TGI in the experiment on OVCAR-5 ovarian worked out at 3.65 µM; in the experiment with NCI/ADR-RES ovarian, 7.52 µM; in the experiment with MOLT-4 leukemia it was 5.69 µM; in the experiment with IGROV1 ovarian, 5.36 µM.

For the compound `CN(C)CCNc1ccc(CO)c2oc3ccc(O)cc3c(=O)c12`, the TGI in the experiment on NCI-H522 lung came out at 17.1 µM; in the experiment on A498 renal it was 28.3 µM; in the experiment on ACHN renal, 44 µM; in the experiment with OVCAR-3 ovarian it was 42.1 µM; with SK-MEL-28 melanoma, 32 µM; in the experiment on HOP-92 NSCLC, 33.4 µM. For the same compound, the TGI in the experiment on OVCAR-5 ovarian amounted to 38 µM; with NCI/ADR-RES ovarian, 74.3 µM; in the experiment with MOLT-4 leukemia, 14.3 µM; with IGROV1 ovarian, 57.2 µM.

For the compound `NC(=O)c1cc(Cl)ccc1NC(=O)/C=C/c1ccccc1`, the GI50 was 1.81 µM in the experiment with NCI-H522 lung; 5.09 µM with A498 renal; 4.75 µM with ACHN renal; 1.3 µM in the experiment with OVCAR-3 ovarian; 2.58 µM in the experiment on SK-MEL-28 melanoma; 9.88 µM in the experiment on HOP-92 NSCLC. Besides, the results for the GI50 in the experiment with NCI/ADR-RES ovarian, with MOLT-4 leukemia and in the experiment with IGROV1 ovarian were 2.63 µM, 3.44 µM and 3.03 µM, respectively. In addition, the TGI with NCI-H522 lung was 6.42 µM; in the experiment with A498 renal, over 53.7 µM; in the experiment with ACHN renal, over 100 µM; with OVCAR-3 ovarian, 2.89 µM; with SK-MEL-28 melanoma it was over 100 µM; in the experiment on HOP-92 NSCLC, over 43 µM. Besides, the TGI is over 58.7 µM in the experiment on OVCAR-5 ovarian, over 26.9 µM in the experiment with NCI/ADR-RES ovarian, over 100 µM in the experiment on MOLT-4 leukemia and over 100 µM in the experiment with IGROV1 ovarian.

As for `COc1c2c(cc3c1OCO3)[C@]13C=C[C@H](OC)C[C@H]1N(C2)CC3O` (some centres not stated), the TGI with NCI-H522 lung, with A498 renal, in the experiment with ACHN renal, in the experiment on OVCAR-3 ovarian, with SK-MEL-28 melanoma and in the experiment with HOP-92 NSCLC was over 100 µM each time. Moreover, the TGI in the experiment on OVCAR-5 ovarian, in the experiment on NCI/ADR-RES ovarian, with MOLT-4 leukemia and in the experiment with IGROV1 ovarian was over 100 µM throughout.

Turning to `COc1cc(Cc2nccc3cc(OC)c(OC)cc23)c(C(C)=O)cc1OC`, the GI50 in the experiment with NCI-H522 lung was 21.5 µM; with A498 renal, 204 µM; in the experiment with OVCAR-3 ovarian it was 86 µM and 27.7 µM; in the experiment with SK-MEL-28 melanoma it was 20.4 µM and 142 µM; in the experiment with HOP-92 NSCLC, 99.3 µM and > 750 µM; in the experiment with OVCAR-5 ovarian, 204 µM. Further, the GI50 with MOLT-4 leukemia is over 750 µM; with IGROV1 ovarian, 51.4 µM and 92.7 µM. Also, the TGI in the experiment with NCI-H522 lung was 300 µM; with A498 renal, > 300 µM and 507 µM; with ACHN renal, 429 µM; in the experiment with OVCAR-3 ovarian it was 300 µM and 203 µM; in the experiment with SK-MEL-28 melanoma, 42.1 µM and 331 µM; with HOP-92 NSCLC, 267 µM and > 750 µM. Besides, the TGI in the experiment with OVCAR-5 ovarian was over 750 µM; in the experiment on NCI/ADR-RES ovarian, over 300 µM; in the experiment on MOLT-4 leukemia, over 750 µM; with IGROV1 ovarian it was 300 µM and 440 µM.
